Several values for one entry are separate records, joined by “and”; a condition that tells them apart may be missing. Identical values can stand only once.
Columns and labels:
Conditions in all cases: incubation time: 72 h
MCF-10A = experiment: normalised response (% of control), CellTiter-Glo; higher = more viable cells (100 = DMSO, 0 = benzethonium chloride kill control)
Procedure: (§1)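 DSRT, 72 h incubation, CellTox Green / CellTiter-Glo readout. Signal is normalised to DMSO and benzethonium chloride controls. Value is the normalised response at the highest dose.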

DU-4475 [1] = experiment: as above
Procedure: as §1

CAL-85-1 [2] = experiment: as above
Procedure: as §1

MDA-MB-231 [3] = experiment: as above
Procedure: as §1

HCC1599 [4] = experiment: as above
Procedure: as §1

MDA-MB-468 = experiment: as above
Procedure: as §1

HDQ-P1 [5] = experiment: as above
Procedure: as §1

SK-BR-3 = experiment: normalised viability (% of control), CellTiter-Blue; higher = more viable cells (about 100 = DMSO control)
Summary of the method: (§2)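 Seeded at 20 µl suspension per well onto compound-loaded 384-well plates, breast cancer cell lines were incubated 72 h. CellTiter-Blue fluorescence at 560/590 nm was then read, with each plate normalised to vehicle (100) and a positive kill control (0). Normalised viability is reported at a single listed concentration of the series.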

BT-549 = experiment: as above
Summary of the method: as §2

DU-4475 [6] = experiment: as above
Summary of the method: as §2

CAL-51 = experiment: as above
Summary of the method: as §2

CAL-148 = experiment: as above
Summary of the method: as §2

HCC1937 = experiment: as above
Summary of the method: as §2

BT-474 = experiment: as above
Summary of the method: as §2

CAL-85-1 [7] = experiment: as above
Summary of the method: as §2

MDA-MB-231 [8] = experiment: as above
Summary of the method: as §2

HCC1143 = experiment: as above
Summary of the method: as §2

MDA-MB-436 = experiment: as above
Summary of the method: as §2

Hs578T = experiment: as above
Summary of the method: as §2

HCC1599 [9] = experiment: as above
Summary of the method: as §2

MFM-223 = experiment: as above
Summary of the method: as §2

MDA-MB-453 = experiment: as above
Summary of the method: as §2

CAL-120 = experiment: as above
Summary of the method: as §2

HDQ-P1 [10] = experiment: as above
Summary of the method: as §2

## O=NN(CCCl)C(=O)NCCCl [Carmustine] (10000 nM)
MCF-10A
  normalised response: 93.8%
DU-4475 [1]
  normalised response: 96.5%
CAL-85-1 [2]
  normalised response: 101%
MDA-MB-231 [3]
  normalised response: 99.9%
HCC1599 [4]
  normalised response: 104%
MDA-MB-468
  normalised response: 97.3%
HDQ-P1 [5]
  normalised response: 96.1%

## CC1=C2C[C@H]3[C@@H](CC=C4C[C@@H](O)CC[C@@]43C)[C@@H]2CC[C@]12O[C@@H]1C[C@H](C)CN[C@H]1[C@H]2C [Cyclopamine] (10000 nM)
MCF-10A
  normalised response: 108%
DU-4475 [1]
  normalised response: 105%
CAL-85-1 [2]
  normalised response: 104%
MDA-MB-231 [3]
  normalised response: 106%
HCC1599 [4]
  normalised response: 107%
MDA-MB-468
  normalised response: 51.5%
HDQ-P1 [5]
  normalised response: 86%

## CC1(C)CNc2cc(NC(=O)c3cccnc3NCc3ccncc3)ccc21 [Motesanib]
SK-BR-3; 10 nM
  normalised viability: 83.3%
SK-BR-3; 1000 nM
  normalised viability: 88.9%
SK-BR-3; 10000 nM
  normalised viability: 78.9%
BT-549; 10 nM
  normalised viability: 79.1%
BT-549; 1000 nM
  normalised viability: 93.5%
BT-549; 10000 nM
  normalised viability: 79.2%
DU-4475 [6]; 3 nM
  normalised viability: 85.6%
DU-4475 [6]; 30 nM
  normalised viability: 79.6%
DU-4475 [6]; 100 nM
  normalised viability: 83.9%
CAL-51; 3 nM
  normalised viability: 109%
CAL-51; 30 nM
  normalised viability: 110%
CAL-51; 100 nM
  normalised viability: 97.2%
CAL-148; 3 nM
  normalised viability: 94.8%
CAL-148; 30 nM
  normalised viability: 83.7%
CAL-148; 100 nM
  normalised viability: 90.7%
HCC1937; 10 nM
  normalised viability: 104%
HCC1937; 1000 nM
  normalised viability: 91.5%
HCC1937; 10000 nM
  normalised viability: 88.5%
BT-474; 10 nM
  normalised viability: 109%
BT-474; 1000 nM
  normalised viability: 101%
BT-474; 10000 nM
  normalised viability: 103%
CAL-85-1 [7]; 3 nM
  normalised viability: 83.1%
CAL-85-1 [7]; 30 nM
  normalised viability: 80.9%
CAL-85-1 [7]; 100 nM
  normalised viability: 85.3%
MDA-MB-231 [8]; 10 nM
  normalised viability: 69.8%
MDA-MB-231 [8]; 1000 nM
  normalised viability: 77.3%
MDA-MB-231 [8]; 10000 nM
  normalised viability: 72.8%
HCC1143; 10 nM
  normalised viability: 79.9%
HCC1143; 1000 nM
  normalised viability: 82.4%
HCC1143; 10000 nM
  normalised viability: 70.4%
MDA-MB-436; 10 nM
  normalised viability: 72.5%
MDA-MB-436; 1000 nM
  normalised viability: 63%
MDA-MB-436; 10000 nM
  normalised viability: 73%
Hs578T; 10 nM
  normalised viability: 104%
Hs578T; 1000 nM
  normalised viability: 95.5%
Hs578T; 10000 nM
  normalised viability: 95.7%
HCC1599 [9]; 10 nM
  normalised viability: 83.8%
HCC1599 [9]; 1000 nM
  normalised viability: 98.1%
HCC1599 [9]; 10000 nM
  normalised viability: 95.9%
MFM-223; 10 nM
  normalised viability: 80.8%
MFM-223; 1000 nM
  normalised viability: 76.4%
MFM-223; 10000 nM
  normalised viability: 83.2%
MDA-MB-453; 3 nM
  normalised viability: 96.1%
MDA-MB-453; 30 nM
  normalised viability: 71.3%
MDA-MB-453; 100 nM
  normalised viability: 69.6%
CAL-120; 10 nM
  normalised viability: 74.4%
CAL-120; 1000 nM
  normalised viability: 78.3%
CAL-120; 10000 nM
  normalised viability: 82.4%
HDQ-P1 [10]; 3 nM
  normalised viability: 76.7%
HDQ-P1 [10]; 30 nM
  normalised viability: 95.1%
HDQ-P1 [10]; 100 nM
  normalised viability: 86.6%

## CC(=O)O[C@@]12CO[C@@H]1C[C@H](O)[C@@]1(C)C(=O)[C@H](O)C3=C(C)[C@@H](OC(=O)[C@H](O)[C@@H](NC(=O)OC(C)(C)C)c4ccccc4)C[C@@](O)([C@@H](OC(=O)c4ccccc4)[C@H]21)C3(C)C [Docetaxel]
SK-BR-3; 1 nM
  normalised viability: 85.7% and 86.8%
SK-BR-3; 100 nM
  normalised viability: 19% and 14.4%
SK-BR-3; 1000 nM
  normalised viability: 18.3% and 14.1%
BT-549; 1 nM
  normalised viability: 64.5% and 58.7%
BT-549; 100 nM
  normalised viability: 24.3% and 19%
BT-549; 1000 nM
  normalised viability: 24.4% and 20.3%
DU-4475 [6]; 0.3 nM
  normalised viability: 116% and 110%
DU-4475 [6]; 3 nM
  normalised viability: 50.8% and 35.1%
DU-4475 [6]; 10 nM
  normalised viability: 34.5% and 35.6%
CAL-51; 0.3 nM
  normalised viability: 112% and 93.8%
CAL-51; 3 nM
  normalised viability: 67.8% and 60.9%
CAL-51; 10 nM
  normalised viability: 45.5% and 33.4%
CAL-148; 0.3 nM
  normalised viability: 97.3% and 89.1%
CAL-148; 3 nM
  normalised viability: 41.6% and 29.8%
CAL-148; 10 nM
  normalised viability: 21.9% and 19.9%
HCC1937; 1 nM
  normalised viability: 53.9% and 76.2%
HCC1937; 100 nM
  normalised viability: 20.5% and 17.5%
HCC1937; 1000 nM
  normalised viability: 27.5% and 19%
BT-474; 1 nM
  normalised viability: 91.6% and 101%
BT-474; 100 nM
  normalised viability: 21.4% and 27.7%
BT-474; 1000 nM
  normalised viability: 16.9% and 28.5%
CAL-85-1 [7]; 0.3 nM
  normalised viability: 96.7% and 101%
CAL-85-1 [7]; 3 nM
  normalised viability: 56% and 56.9%
CAL-85-1 [7]; 10 nM
  normalised viability: 36.1% and 35.2%
MDA-MB-231 [8]; 1 nM
  normalised viability: 83% and 72.7%
MDA-MB-231 [8]; 100 nM
  normalised viability: 17% and 21.6%
MDA-MB-231 [8]; 1000 nM
  normalised viability: 21.6% and 21%
HCC1143; 1 nM
  normalised viability: 79.8% and 66.2%
HCC1143; 100 nM
  normalised viability: 34.7% and 31.3%
HCC1143; 1000 nM
  normalised viability: 35.3% and 33%
MDA-MB-436; 1 nM
  normalised viability: 85% and 80.1%
MDA-MB-436; 100 nM
  normalised viability: 19.3% and 34%
MDA-MB-436; 1000 nM
  normalised viability: 38.6% and 43.8%
Hs578T; 1 nM
  normalised viability: 69% and 63.9%
Hs578T; 100 nM
  normalised viability: 11.7% and 12.4%
Hs578T; 1000 nM
  normalised viability: 12.3% and 9.74%
HCC1599 [9]; 1 nM
  normalised viability: 134% and 119%
HCC1599 [9]; 100 nM
  normalised viability: 101% and 94.3%
HCC1599 [9]; 1000 nM
  normalised viability: 104% and 99.7%
MFM-223; 1 nM
  normalised viability: 84.9% and 81.8%
MFM-223; 100 nM
  normalised viability: 43.6% and 47.1%
MFM-223; 1000 nM
  normalised viability: 47.8% and 41.5%
MDA-MB-453; 0.3 nM
  normalised viability: 121% and 107%
MDA-MB-453; 3 nM
  normalised viability: 48.1% and 57.8%
MDA-MB-453; 10 nM
  normalised viability: 39.6% and 31.9%
CAL-120; 1 nM
  normalised viability: 84.9% and 81.7%
CAL-120; 100 nM
  normalised viability: 25% and 23.5%
CAL-120; 1000 nM
  normalised viability: 25.8% and 23.3%
HDQ-P1 [10]; 0.3 nM
  normalised viability: 86.7% and 84.7%
HDQ-P1 [10]; 3 nM
  normalised viability: 58.6% and 72.4%
